pIC50: −log10 of the molar value.
Legend:
NCI-H727 cells = experiment: NCI-H727 CTG proliferation assay (120 h) (lung cancer, G12V); type: cell-based; settings: Homo sapiens
How it was run: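 Cells seeded at 500/well in RPMI + 10% FCS, left overnight, then dosed with a log dilution series in technical duplicate; untreated T0 plate read at compound addition. After 120 h at 37 °C, CellTiter-Glo luminescence read; viability as % of DMSO control, IC50 from four-parameter non-linear regression.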

NCI-H358 cells = experiment: NCI-H358 CTG proliferation assay (120 h) (NSCLC, G12C); type: cell-based; settings: Homo sapiens
How it was run: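 Cells seeded at 200 per well in RPMI-1640 with 10% FCS, left overnight, then treated with a logarithmic dose series in duplicate for 120 h. Viability measured by CellTiter-Glo luminescence as percent of DMSO controls; IC50 from four-parameter non-linear regression.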

SK-CO-1 cells = experiment: SK-CO-1 CTG proliferation assay (120 h) (CRC, G12V); type: cell-based; settings: Homo sapiens
How it was run: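 Cells seeded overnight in EMEM with 10% FCS, then given logarithmic dose series in duplicate for 120 h at 37° C. CellTiter-Glo luminescence expressed as percent of DMSO controls, with a T0 read at dosing; IC50 by four-parameter non-linear regression.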

LOVO cells = experiment: LOVO CTG proliferation assay (120 h) (CRC, G13D); type: cell-based; settings: Homo sapiens
How it was run: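 Cells seeded at 1000/well in DMEM + 10% FCS, dosed next day with a logarithmic compound series, technical duplicates, for 120 h. Viability by CellTiter-Glo luminescence as percent of DMSO control; IC50 from four-parameter non-linear regression.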

[1] = Metabolic (microsomal) stability assay, human liver microsomes (HLM); type: in vitro ADME; settings: 1 μM test compound, predicted clearance as percent of liver blood flow

Compound	pIC50 (NCI-H727 cells)	pIC50 (NCI-H358 cells)	pIC50 (SK-CO-1 cells)	pIC50 (LOVO cells)	HLM QH [1] [%]
CCn1c(=O)n([C@@H]2CCCOC2)c2nc(-c3onc4c3CCC[C@@]43CCCc4sc(N)c(C#N)c43)nc(OCC3(CN4CCCC4)CC3)c21 [I-35]	6.80	6.63	6.73	6.92	53
CCn1c(=O)n([C@@H]2CCCOC2)c2nc(-c3onc4c3CCC[C@@]43CCCc4sc(N)c(C#N)c43)nc(O[C@@H](C)C34CCCN3CCC4)c21 [I-36]	7.68	7.42	7.85	8.05	37
C[C@H](Oc1nc(-c2onc3c2CCC[C@@]32CCCc3sc(N)c(C#N)c32)nc2c1N(C)C(=O)CN2[C@@H]1CCOC1)[C@@H]1CCCN1C [I-37]	6.74	6.63	6.49	7.51	<24
C[C@H](Oc1nc(-c2onc3c2CCC[C@@]32CCCc3sc(N)c(C#N)c32)nc2c1ncn2[C@@H]1CCOC1)[C@@H]1CCCN1C [I-38]	7.47	8.05	7.49	6.94	28
Cc1nc2c(O[C@@H](C)[C@@H]3CCCN3C)nc(-c3onc4c3CCC[C@@]43CCCc4sc(N)c(C#N)c43)nc2n1[C@@H]1CCOC1 [I-39]	7.55	7.72	7.85	7.72	57
Cc1cc2c(O[C@@H](C)[C@@H]3CCCN3C)nc(-c3onc4c3CCC[C@@]43CCCc4sc(N)c(C#N)c43)nc2n1[C@@H]1CCOC1 [I-40]	7.77	7.77	7.41	7.37	37
Cc1cn([C@@H]2CCOC2)c2nc(-c3onc4c3CCC[C@@]43CCCc4sc(N)c(C#N)c43)nc(O[C@@H](C)[C@@H]3CCCN3C)c12 [I-41]	6.97	6.53	7.74	6.46	<24
Cc1nn([C@@H]2CCOC2)c2nc(-c3onc4c3CCC[C@@]43CCCc4sc(N)c(C#N)c43)nc(O[C@@H](C)[C@@H]3CCCN3C)c12 [I-42]	7.41	7.68	7.34	6.97	36
C[C@H](Oc1nc(-c2onc3c2CCC[C@@]32CCCc3sc(N)c(C#N)c32)nc2c1cnn2[C@@H]1CCOC1)[C@@H]1CCCN1C [I-43]	7.44	7.15	7.25	7.82	<24
C[C@H](Oc1nc(-c2onc3c2CCC[C@@]32CCCc3sc(N)c(C#N)c32)nc2c1n(C)c(=O)n2[C@@]12COC[C@@H]1C2)[C@@H]1CC[C@H](C)N1C [I-45]	9.00	8.30	8.40	8.05	41
CO[C@@H]1C[C@@H]([C@H](C)Oc2nc(-c3onc4c3CCC[C@@]43CCCc4sc(N)c(C#N)c43)nc3c2n(C)c(=O)n3[C@@]23COC[C@@H]2C3)N(C)C1 [I-46]	8.70	8.22	8.40	7.68	34
C[C@H](Oc1nc(-c2onc3c2CCC[C@@]32CCCc3sc(N)c(C#N)c32)nc2c1COC[C@]21CCOC1)[C@@H]1CCCN1C [I-54]	8.70	8.52	8.52	8.40	31
C[C@H](Oc1nc(-c2onc3c2CCC[C@@]32CCCc3sc(N)c(C#N)c32)nc2c1CN(C1COC1)C[C@]21CCOC1)[C@@H]1CC[C@H](C)N1C [I-55]	8.52	8.30	8.22	7.59	52
C[C@H](Oc1nc(-c2onc3c2CCC[C@@]32CCCc3sc(N)c(C#N)c32)nc2c1CN(C1COC1)C[C@]21CCOC1)[C@@H]1CCCN1C [I-56]	8.40	8.22	8.15	7.37	<24
CO[C@H]1CCN(C)[C@@H]1[C@H](C)Oc1nc(-c2onc3c2CCC[C@@]32CCCc3sc(N)c(C#N)c32)nc2c1CN(C1COC1)C[C@]21CCOC1 [I-57]	8.52	8.40	8.15	7.41	61
CO[C@@H]1C[C@@H]([C@H](C)Oc2nc(-c3onc4c3CCC[C@@]43CCCc4sc(N)c(C#N)c43)nc3c2CN(C2COC2)C[C@]32CCOC2)N(C)C1 [I-58]	8.30	8.30	8.05	7.08	52
CO[C@H]1CCN(C)[C@@H]1[C@H](C)Oc1nc(-c2noc3c2CCC[C@@]32CCCc3sc(N)c(C#N)c32)nc2c1n(C)c(=O)n2[C@@H]1CCOC1 [II-1]	8.70	8.40	8.40	8.70	80
C[C@H](Oc1nc(-c2noc3c2CCC[C@@]32CCCc3sc(N)c(C#N)c32)nc2c1n(C)c(=O)n2[C@@H]1CCOC1)[C@@H]1CCCN1C [II-2]	8.52	8.40	8.52	8.10	40
CO[C@H]1CCN(C)[C@@H]1[C@H](C)Oc1nc(-c2noc3c2CCC[C@@]32CCCc3sc(N)c(C#N)c32)nc2c1n(C)c(=O)n2[C@@H]1CCCOC1 [II-3]	8.30	8.10	8.30	8.70	80
C[C@H](Oc1nc(-c2noc3c2CCC[C@@]32CCCc3sc(N)c(C#N)c32)nc2c1cnn2[C@@H]1CCOC1)[C@@H]1CCCN1C [II-4]	7.92	7.46	8.00	7.62	40
CO[C@@H]1C[C@@H]([C@H](C)Oc2nc(-c3noc4c3CCC[C@@]43CCCc4sc(N)c(C#N)c43)nc3c2n(C)c(=O)n3[C@@]23COC[C@@H]2C3)N(C)C1 [II-6]	9.00	8.52	8.70	7.96	52
C[C@H](Oc1nc(-c2noc3c2CCC[C@@]32CCCc3sc(N)c(C#N)c32)nc2c1COC[C@]21CCOC1)[C@@H]1CCCN1C [II-8]	9.00	9.00	9.00	8.70	46
C[C@H](Oc1nc(-c2noc3c2CCC[C@@]32CCCc3sc(N)c(C#N)c32)nc2c1COC[C@@]21CCOC1)[C@@H]1CCCN1C [II-9a]	7.66	7.13	7.00	6.56	29
C[C@H](Oc1nc(-c2noc3c2CCC[C@@]32CCCc3sc(N)c(C#N)c32)nc2c1CCO[C@]21CCOC1)[C@@H]1CCCN1C [II-9b]	8.40	8.30	8.05	7.92	33
C[C@H](Oc1nc(-c2noc3c2CCC[C@@]32CCCc3sc(N)c(C#N)c32)nc2c1CCCO[C@]21CCOC1)[C@@H]1CCCN1C [II-10]	8.15	8.30	8.40	7.96	47
CO[C@@H]1C[C@@H]([C@H](C)Oc2nc(-c3noc4c3CCC[C@@]43CCCc4sc(N)c(C#N)c43)nc3c2COC[C@]32CCOC2)N(C)C1 [II-11]	9.00	8.52	8.40	8.22	64
